Source: ChEMBL document CHEMBL4411296, “Design and development of Isatin-triazole hydrazones as potential inhibitors of microtubule affinity-regulating kinase 4 for the therapeutic management of cell proliferation and metastasis” (Eur J Med Chem, 2019)

Assays:
Type in all cases: functional
SR = experiment: Growth inhibition of human SR cells assessed as cell growth at 10 uM after 48 hrs by sulforhodamine B assay relative to control; details: read-out: Activity
BT-549 = experiment: Growth inhibition of human BT549 cells assessed as cell growth at 10 uM after 48 hrs by sulforhodamine B assay relative to control; details: BT-549, 48 h, read-out: Activity
SNB-19 = experiment: Growth inhibition of human SNB19 cells assessed as cell growth at 10 uM after 48 hrs by sulforhodamine B assay relative to control; details: SNB-19, 48 h, read-out: Activity
EKVX = experiment: Growth inhibition of human EKVX cells assessed as cell growth at 10 uM after 48 hrs by sulforhodamine B assay relative to control; details: read-out: Activity
SW-620 = experiment: Growth inhibition of human SW620 cells assessed as cell growth at 10 uM after 48 hrs by sulforhodamine B assay relative to control; details: SW-620, 48 h, read-out: Activity
CAKI-1 = experiment: Growth inhibition of human Caki1 cells assessed as cell growth at 10 uM after 48 hrs by sulforhodamine B assay relative to control; details: CAKI-1, 48 h, read-out: Activity
Hs-578T = experiment: Growth inhibition of human Hs 578T cells assessed as cell growth at 10 uM after 48 hrs by sulforhodamine B assay relative to control; details: read-out: Activity
CCRF-CEM = experiment: Growth inhibition of human CCRF-CEM cells assessed as cell growth at 10 uM after 48 hrs by sulforhodamine B assay relative to control; details: read-out: Activity
SK-MEL-28 = experiment: Growth inhibition of human SK-MEL-28 cells assessed as cell growth at 10 uM after 48 hrs by sulforhodamine B assay relative to control; details: SK-MEL-28, 48 h, read-out: Activity
NCI-H522 = experiment: Growth inhibition of human NCI-H522 cells assessed as cell growth at 10 uM after 48 hrs by sulforhodamine B assay relative to control; details: NCI-H522, 48 h, read-out: Activity
NCI-H322M = experiment: Growth inhibition of human NCI-H322M cells assessed as cell growth at 10 uM after 48 hrs by sulforhodamine B assay relative to control; details: read-out: Activity
NCI/ADR-RES = experiment: Growth inhibition of human NCI/ADR-RES cells assessed as cell growth at 10 uM after 48 hrs by sulforhodamine B assay relative to control; details: read-out: Activity
COLO 205 = experiment: Growth inhibition of human COLO205 cells assessed as cell growth at 10 uM after 48 hrs by sulforhodamine B assay relative to control; details: COLO 205, 48 h, read-out: Activity
RXF 393 = experiment: Growth inhibition of human RXF393 cells assessed as cell growth at 10 uM after 48 hrs by sulforhodamine B assay relative to control; details: RXF 393, 48 h, read-out: Activity
MOLT-4 = experiment: Growth inhibition of human MOLT4 cells assessed as cell growth at 10 uM after 48 hrs by sulforhodamine B assay relative to control; details: MOLT-4, 48 h, read-out: Activity
RPMI-8226 = experiment: Growth inhibition of human RPMI8226 cells assessed as cell growth at 10 uM after 48 hrs by sulforhodamine B assay relative to control; details: RPMI-8226, 48 h, read-out: Activity
K562 = experiment: Growth inhibition of human K562 cells assessed as cell growth at 10 uM after 48 hrs by sulforhodamine B assay relative to control; details: K562, 48 h, read-out: Activity
OVCAR-5 = experiment: Growth inhibition of human OVCAR5 cells assessed as cell growth at 10 uM after 48 hrs by sulforhodamine B assay relative to control; details: OVCAR-5, 48 h, read-out: Activity
HOP-62 = experiment: Growth inhibition of human HOP62 cells assessed as cell growth at 10 uM after 48 hrs by sulforhodamine B assay relative to control; details: HOP-62, 48 h, read-out: Activity
TK-10 = experiment: Growth inhibition of human TK10 cells assessed as cell growth at 10 uM after 48 hrs by sulforhodamine B assay relative to control; details: TK-10, 48 h, read-out: Activity
NCI-H460 = experiment: Growth inhibition of human NCI-H460 cells assessed as cell growth at 10 uM after 48 hrs by sulforhodamine B assay relative to control; details: NCI-H460, 48 h, read-out: Activity
T47D = experiment: Growth inhibition of human T47D cells assessed as cell growth at 10 uM after 48 hrs by sulforhodamine B assay relative to control; details: read-out: Activity
UACC-62 = experiment: Growth inhibition of human UACC62 cells assessed as cell growth at 10 uM after 48 hrs by sulforhodamine B assay relative to control; details: UACC-62, 48 h, read-out: Activity
NCI-H226 = experiment: Growth inhibition of human NCI-H226 cells assessed as cell growth at 10 uM after 48 hrs by sulforhodamine B assay relative to control; details: NCI-H226, 48 h, read-out: Activity
SF-268 = experiment: Growth inhibition of human SF268 cells assessed as cell growth at 10 uM after 48 hrs by sulforhodamine B assay relative to control; details: SF-268, 48 h, read-out: Activity
SK-OV-3 = experiment: Growth inhibition of human SKOV3 cells assessed as cell growth at 10 uM after 48 hrs by sulforhodamine B assay relative to control; details: SK-OV-3, 48 h, read-out: Activity
SK-MEL-5 = experiment: Growth inhibition of human SK-MEL-5 cells assessed as cell growth at 10 uM after 48 hrs by sulforhodamine B assay relative to control; details: SK-MEL-5, 48 h, read-out: Activity
OVCAR-3 = experiment: Growth inhibition of human OVCAR3 cells assessed as cell growth at 10 uM after 48 hrs by sulforhodamine B assay relative to control; details: OVCAR-3, 48 h, read-out: Activity
786-0 = experiment: Growth inhibition of human 786-0 cells assessed as cell growth at 10 uM after 48 hrs by sulforhodamine B assay relative to control; details: 786-0, 48 h, read-out: Activity
A549 = experiment: Growth inhibition of human A549/ATCC cells assessed as cell growth at 10 uM after 48 hrs by sulforhodamine B assay relative to control; details: A549, 48 h, read-out: Activity
Malme-3M = experiment: Growth inhibition of human MALME-3M cells assessed as cell growth at 10 uM after 48 hrs by sulforhodamine B assay relative to control; details: read-out: Activity
ACHN = experiment: Growth inhibition of human ACHN cells assessed as cell growth at 10 uM after 48 hrs by sulforhodamine B assay relative to control; details: read-out: Activity
LOX IMVI = experiment: Growth inhibition of human LOXIMVI cells assessed as cell growth at 10 uM after 48 hrs by sulforhodamine B assay relative to control; details: read-out: Activity
SF-539 = experiment: Growth inhibition of human SF539 cells assessed as cell growth at 10 uM after 48 hrs by sulforhodamine B assay relative to control; details: SF-539, 48 h, read-out: Activity

Row | SMILES | growth at 10 µM (SR) | growth at 10 µM (BT-549) | growth at 10 µM (SNB-19) | growth at 10 µM (EKVX) | growth at 10 µM (SW-620) | growth at 10 µM (CAKI-1) | growth at 10 µM (Hs-578T) | growth at 10 µM (CCRF-CEM) | growth at 10 µM (SK-MEL-28) | growth at 10 µM (NCI-H522) | growth at 10 µM (NCI-H322M) | growth at 10 µM (NCI/ADR-RES) | growth at 10 µM (COLO 205) | growth at 10 µM (RXF 393) | growth at 10 µM (MOLT-4) | growth at 10 µM (RPMI-8226) | growth at 10 µM (K562) | growth at 10 µM (OVCAR-5) | growth at 10 µM (HOP-62) | growth at 10 µM (TK-10) | also measured
1 | COc1ccc(Cn2cc(C(=O)N/N=C3/C(=O)Nc4ccc(Cl)cc43)nn2)cc1 | 80.6% | 116% | 98.5% | 106% | 99.7% | 101% | 112% | 94.7% | 113% | 90.6% | 104% | 115% | 117% | 103% | 90.6% | 109% | 91.2% | 114% | 112% | 84.8% | growth at 10 µM (NCI-H460): 102%; growth at 10 µM (T47D): 101%; growth at 10 µM (UACC-62): 101%; growth at 10 µM (NCI-H226): 96.8%; growth at 10 µM (SF-268): 98.9%; growth at 10 µM (SK-OV-3): 119%; growth at 10 µM (SK-MEL-5): 96.7%; growth at 10 µM (OVCAR-3): 109%; growth at 10 µM (786-0): 99.8%; growth at 10 µM (A549): 103%; growth at 10 µM (Malme-3M): 95%; growth at 10 µM (ACHN): 107%; growth at 10 µM (LOX IMVI): 108%; growth at 10 µM (SF-539): 106%
2 | COc1ccc(Cn2cc(C(=O)N/N=C3/C(=O)Nc4c(Cl)cccc43)nn2)cc1 | 80.3% | 111% | 93.6% | 102% | 99.7% | 94.4% | 97.5% | 106% | 115% | 84% | 101% | 105% | 114% | 109% | 84.8% | 106% | 89.2% | 123% | 110% | 106% | growth at 10 µM (NCI-H460): 99.7%; growth at 10 µM (T47D): 100%; growth at 10 µM (UACC-62): 102%; growth at 10 µM (NCI-H226): 102%; growth at 10 µM (SF-268): 94.7%; growth at 10 µM (SK-OV-3): 113%; growth at 10 µM (SK-MEL-5): 101%; growth at 10 µM (OVCAR-3): 113%; growth at 10 µM (786-0): 106%; growth at 10 µM (A549): 102%; growth at 10 µM (Malme-3M): 99.7%; growth at 10 µM (ACHN): 111%; growth at 10 µM (LOX IMVI): 93.8%; growth at 10 µM (SF-539): 108%
3 | COc1ccc(Cn2cc(C(=O)N/N=C3/C(=O)Nc4ccccc43)nn2)cc1 | 94.8% | 115% | 98% | 104% | 101% | 93.3% | 109% | 104% | 104% | 87.8% | 97.9% | 97.2% | 108% | 101% | 93.2% | 105% | 90.5% | 93% | 104% | 107% | growth at 10 µM (NCI-H460): 109%; growth at 10 µM (T47D): 113%; growth at 10 µM (UACC-62): 96.7%; growth at 10 µM (NCI-H226): 86.8%; growth at 10 µM (SF-268): 101%; growth at 10 µM (SK-OV-3): 113%; growth at 10 µM (SK-MEL-5): 102%; growth at 10 µM (OVCAR-3): 112%; growth at 10 µM (786-0): 106%; growth at 10 µM (A549): 98.4%; growth at 10 µM (Malme-3M): 97.2%; growth at 10 µM (ACHN): 107%; growth at 10 µM (LOX IMVI): 102%; growth at 10 µM (SF-539): 108%
4 | COc1ccc(Cn2cc(C(=O)N/N=C3/C(=O)Nc4ccc(Br)cc43)nn2)cc1 | 77.5% | 111% | 97.3% | 106% | 107% | 97.7% | 114% | 92.5% | 116% | 89.1% | 102% | 103% | 115% | 99.8% | 80.6% | 100% | 88.1% | 106% | 111% | 97.6% | growth at 10 µM (NCI-H460): 111%; growth at 10 µM (T47D): 106%; growth at 10 µM (UACC-62): 97.2%; growth at 10 µM (NCI-H226): 97.5%; growth at 10 µM (SF-268): 94.1%; growth at 10 µM (SK-OV-3): 108%; growth at 10 µM (SK-MEL-5): 98.3%; growth at 10 µM (OVCAR-3): 112%; growth at 10 µM (786-0): 99.6%; growth at 10 µM (A549): 95.1%; growth at 10 µM (Malme-3M): -89.9%; growth at 10 µM (ACHN): 110%; growth at 10 µM (LOX IMVI): 107%; growth at 10 µM (SF-539): 104%
5 | COc1ccc(Cn2cc(C(=O)N/N=C3/C(=O)Nc4ccc(F)c(Cl)c43)nn2)cc1 | 99.5% | 117% | 101% | 108% | 106% | 96.8% | 112% | 109% | 115% | 84% | 105% | 104% | 115% | 104% | 96.8% | 116% | 90.8% | 122% | 112% | 101% | growth at 10 µM (NCI-H460): 108%; growth at 10 µM (T47D): 110%; growth at 10 µM (UACC-62): 108%; growth at 10 µM (NCI-H226): 93.2%; growth at 10 µM (SF-268): 99.4%; growth at 10 µM (SK-OV-3): 116%; growth at 10 µM (SK-MEL-5): 99.9%; growth at 10 µM (OVCAR-3): 105%; growth at 10 µM (786-0): 103%; growth at 10 µM (A549): 98%; growth at 10 µM (Malme-3M): 103%; growth at 10 µM (ACHN): 111%; growth at 10 µM (LOX IMVI): 100%; growth at 10 µM (SF-539): 111%
